Measured values published in US20260325533A1, “CDK INHIBITOR COMPOUNDS” (ALEKSIA THERAPEUTICS, INC., priority 2023, published 2026).
Read-outs that look alike come from different tables or passages of the source. Blank lines part the entries; values can stand above or below the compound they belong to.

How the values were obtained:
Assay type in all cases: biochemical
[1] = molecular target: CDK1/CCNB1 (Homo sapiens, UniProt P06493); test: CDK1 homogeneous time-resolved fluorescence (HTRF) kinase assay; conditions: CDK1/CCNB
CDK1/CCNB1, sequence (P06493 whole entry): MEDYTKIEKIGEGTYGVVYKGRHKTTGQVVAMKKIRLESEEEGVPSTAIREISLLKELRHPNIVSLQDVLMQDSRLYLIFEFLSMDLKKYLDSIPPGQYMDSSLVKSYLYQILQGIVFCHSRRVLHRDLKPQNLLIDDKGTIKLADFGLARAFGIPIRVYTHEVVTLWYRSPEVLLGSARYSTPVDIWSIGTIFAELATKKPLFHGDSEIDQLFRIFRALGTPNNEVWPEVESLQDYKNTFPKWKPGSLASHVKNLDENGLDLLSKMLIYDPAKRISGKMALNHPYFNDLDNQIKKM
CDK1/CCNB1, sequence (P14635 whole entry partner): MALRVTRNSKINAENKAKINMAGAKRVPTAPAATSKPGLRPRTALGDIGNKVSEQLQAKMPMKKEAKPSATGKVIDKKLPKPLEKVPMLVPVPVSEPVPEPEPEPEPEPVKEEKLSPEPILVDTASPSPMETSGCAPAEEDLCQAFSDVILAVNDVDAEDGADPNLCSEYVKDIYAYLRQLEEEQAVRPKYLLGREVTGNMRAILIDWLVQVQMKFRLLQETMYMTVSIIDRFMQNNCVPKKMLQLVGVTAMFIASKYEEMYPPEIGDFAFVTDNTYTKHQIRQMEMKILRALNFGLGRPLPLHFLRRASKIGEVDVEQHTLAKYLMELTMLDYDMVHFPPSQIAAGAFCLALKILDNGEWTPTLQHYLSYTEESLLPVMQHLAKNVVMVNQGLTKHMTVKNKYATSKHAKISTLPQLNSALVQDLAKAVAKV
Procedure, shortened: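 0.5 nM CDK1/CCNB1 was preincubated 20 min at 23 °C with compound in HEPES pH-unspecified buffer (MgCl2, EGTA, DTT, Tween 20), then reacted 60 min with 1 mM ATP and 50 nM ULight-4E-BP1 (Thr37/46) peptide. EDTA-stopped reactions were detected with 2 nM Eu-anti-phospho antibody; IC50 from 11-point half-log titrations.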

[2] = molecular target: CDK6/CCND1 (Homo sapiens, UniProt Q00534); test: CDK6 homogeneous time-resolved fluorescence (HTRF) kinase assay; conditions: CDK6/CCND
CDK6/CCND1, sequence (Q00534 whole entry): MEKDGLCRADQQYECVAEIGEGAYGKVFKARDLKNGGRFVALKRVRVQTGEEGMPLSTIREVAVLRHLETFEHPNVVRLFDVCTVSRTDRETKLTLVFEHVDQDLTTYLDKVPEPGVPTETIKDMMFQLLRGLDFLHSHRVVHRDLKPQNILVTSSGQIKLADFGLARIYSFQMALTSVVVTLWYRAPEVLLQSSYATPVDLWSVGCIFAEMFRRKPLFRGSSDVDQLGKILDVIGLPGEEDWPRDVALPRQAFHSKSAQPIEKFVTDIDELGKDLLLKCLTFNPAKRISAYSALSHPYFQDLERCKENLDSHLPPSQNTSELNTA
CDK6/CCND1, sequence (P24385 whole entry partner): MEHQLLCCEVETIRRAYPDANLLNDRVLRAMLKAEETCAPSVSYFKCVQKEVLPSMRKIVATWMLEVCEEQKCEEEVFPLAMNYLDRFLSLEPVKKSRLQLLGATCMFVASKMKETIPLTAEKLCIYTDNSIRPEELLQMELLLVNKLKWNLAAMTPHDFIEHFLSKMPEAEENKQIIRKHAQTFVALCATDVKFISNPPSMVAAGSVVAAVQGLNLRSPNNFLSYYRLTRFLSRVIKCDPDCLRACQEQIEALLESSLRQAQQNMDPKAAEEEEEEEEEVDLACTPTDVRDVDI
Procedure, shortened: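 Assay conditions: HEPES buffer containing 10 mM MgCl2, 1 mM EGTA, 2 mM DTT, 0.01% Tween 20; 1 nM CDK6/CCND1, 50 nM peptide substrate, 1 mM ATP. Detection after 60 min reaction used 2 nM europium antibody with 340 nm excitation. Potency fitted from half-log series, 11 points.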

[3] = molecular target: CDK2/CCNE1 (Homo sapiens, UniProt P24941); test: CDK2 homogeneous time-resolved fluorescence (HTRF) kinase assay; conditions: CDK2/CCNE
Procedure, shortened: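 TR-FRET read-out (665 nm, or 665/615 ratio) of Eu-antibody detection of phospho-4E-BP1 (Thr37/46) ULight peptide. Enzyme 3 nM, ATP 1 mM, peptide 50 nM, 1% DMSO; 60 min reaction at 23 °C after 20 min compound preincubation. IC50 from 11-point half-log titrations, top typically 10 μM.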

[4] = molecular target: CDK4/CCND3 (Homo sapiens, UniProt P11802); test: CDK4 homogeneous time-resolved fluorescence (HTRF) kinase assay; conditions: CDK4/CCND
CDK4/CCND3, sequence (P11802 whole entry): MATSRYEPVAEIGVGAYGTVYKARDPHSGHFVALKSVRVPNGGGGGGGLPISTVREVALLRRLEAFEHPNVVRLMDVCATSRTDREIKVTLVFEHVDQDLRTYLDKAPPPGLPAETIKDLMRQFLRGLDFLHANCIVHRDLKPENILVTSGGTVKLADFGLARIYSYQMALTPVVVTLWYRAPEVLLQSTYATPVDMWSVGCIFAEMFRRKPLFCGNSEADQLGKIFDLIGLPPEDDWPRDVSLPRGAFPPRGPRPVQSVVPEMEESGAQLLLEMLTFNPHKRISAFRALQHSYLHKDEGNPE
CDK4/CCND3, sequence (P30281 whole entry partner): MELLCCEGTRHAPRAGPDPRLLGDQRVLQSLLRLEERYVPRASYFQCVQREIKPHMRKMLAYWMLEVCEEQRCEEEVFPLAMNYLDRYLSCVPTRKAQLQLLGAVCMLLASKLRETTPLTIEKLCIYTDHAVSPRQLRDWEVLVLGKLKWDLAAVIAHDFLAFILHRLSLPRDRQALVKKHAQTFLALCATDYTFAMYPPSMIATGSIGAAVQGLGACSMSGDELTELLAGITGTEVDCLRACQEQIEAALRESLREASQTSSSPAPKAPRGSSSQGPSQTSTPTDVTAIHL
Procedure, shortened: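 TR-FRET read (665 nm, or 665/615 ratio) of 4E-BP1 Thr37/46 phosphorylation by 1.5 nM CDK4/CCND3 at 1 mM ATP, 50 nM ULight peptide, 1% DMSO. Reaction ran 60 min at 23 °C after 20 min compound–enzyme preincubation. IC50 from 11-point half-log dilutions, top 10 μM.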

[5] = >250 nM marked x, read-out: CDK1/CCNB IC50 >250 nM
[6] = x = IC50 >250 nM, read-out: CDK1/CCNB IC50 (>250 nM column)
[7] = x = IC50 >250 nM, read-out: CDK6/CCND IC50 (>250 nM column)
[8] = x = IC50 >250 nM, read-out: CDK4/CCND IC50 (>250 nM column)
[9] = >250 nM, read-out: CDK1/CCNB IC50 >250 nM
[10] = >250 nM, 1 mM ATP, read-out: CDK6/CCND IC50, >250 nM
[11] = <25 nM, read-out: CDK2/CCNE IC50, <25 nM
[12] = >250 nM, read-out: CDK4/CCND IC50, >250 nM
[13] = 25-250 nM, read-out: CDK2/CCNE IC50, 25-250 nM
[14] = 25-250 nM marked x, read-out: CDK6/CCND IC50 25-250 nM
[15] = <25 nM, read-out: CDK2/CCNE IC50 <25 nM
[16] = 25-250 nM marked x, read-out: CDK4/CCND IC50 25-250 nM
[17] = x = IC50 25-250 nM, read-out: CDK6/CCND IC50 (25-250 nM)
[18] = x = IC50 <25 nM, read-out: CDK2/CCNE IC50 (<25 nM)
[19] = x = IC50 25-250 nM, read-out: CDK4/CCND IC50 (25-250 nM)

IC50 [1, 5]: > 250 nM | IC50 ([2]; >250 nM marked x, read-out: CDK6/CCND IC50 >250 nM): > 250 nM | IC50 ([3]; 25-250 nM marked x, read-out: CDK2/CCNE IC50 25-250 nM): 25 to 250 nM | IC50 ([4]; >250 nM marked x, read-out: CDK4/CCND IC50 >250 nM): > 250 nM
SMILES: COc1cc(S(C)(=N)=O)ccc1Nc1cc2c(C#Cc3ccc4c(c3)NC(=O)C43CCC3)nccc2cn1 (single isomer, unassigned) [Ex 313, 6'-((7-((2-methoxy-4-(S-methylsulfonimidoyl)phenyl)amino)-2,6-naphthyridin-1-yl)ethynyl)spiro[cyclobutane-1,3'-indolin]-2'-one]

IC50 [1, 6]: > 250 nM | IC50 [2, 7]: > 250 nM | IC50 ([3]; x = IC50 25-250 nM, read-out: CDK2/CCNE IC50 (25-250 nM)): 25 to 250 nM | IC50 [4, 8]: > 250 nM
SMILES: CS(=O)(=O)c1ccc(Nc2cc3c(C#Cc4cc(F)cnc4N)nccc3cn2)cc1 [Ex 556, 5-((2-amino-5-fluoropyridin-3-yl)ethynyl)-N-(4-(methylsulfonyl)phenyl)-2,6-naphthyridin-3-amine]

IC50 [1, 9]: > 250 nM | IC50 [2, 10]: > 250 nM | IC50 [3, 11]: < 25 nM | IC50 [4, 12]: > 250 nM
SMILES: Cc1cccc(NS(=O)(=O)c2ccc(Nc3cc4c(-c5ccc6c(cnn6CC(C)(C)O)c5C)nccc4cn3)cc2)c1 [Ex 807, 4-((5-(1-(2-hydroxy-2-methylpropyl)-4-methyl-1H-indazol-5-yl)-2,6-naphthyridin-3-yl)amino)-N-(m-tolyl)benzenesulfonamide]

IC50 [1, 9]: > 250 nM | IC50 ([2]; 25-250 nM, 1 mM ATP, read-out: CDK6/CCND IC50, 25-250 nM): 25 to 250 nM | IC50 [3, 11]: < 25 nM | IC50 [4, 12]: > 250 nM
SMILES: Cc1c(-c2nccc3cnc(Nc4ccc(S(=O)(=O)Nc5ccc(C(C)(C)O)cn5)cc4)cc23)ccc2c1cnn2CC(C)(C)O [Ex 810, 4-((5-(1-(2-hydroxy-2-methylpropyl)-4-methyl-1H-indazol-5-yl)-2,6-naphthyridin-3-yl)amino)-N-(5-(2-hydroxypropan-2-yl)pyridin-2-yl)benzenesulfonamide]

IC50 [1, 9]: > 250 nM | IC50 [2, 10]: > 250 nM | IC50 [3, 13]: 25 to 250 nM | IC50 [4, 12]: > 250 nM
SMILES: N#Cc1ccc(C#Cc2nccc3cnc(Nc4ccc5c(c4)OCCS5(=O)=O)cc23)cc1 [Example 862, 4-((7-((4,4-dioxido-2,3-dihydrobenzo[b][1,4]oxathiin-7-yl)amino)-2,6-naphthyridin-1-yl)ethynyl)benzonitrile]

IC50 ([1]; 25-250 nM marked x, read-out: CDK1/CCNB IC50 25-250 nM): 25 to 250 nM | IC50 [2, 14]: 25 to 250 nM | IC50 [3, 15]: < 25 nM | IC50 [4, 16]: 25 to 250 nM
SMILES: C=CS(=O)(=O)N1CCC(Nc2cc3c(N4CCC(C#N)CC4)nccc3cn2)CC1 [Ex 106, 1-(7-((1-(vinylsulfonyl)piperidin-4-yl)amino)-2,6-naphthyridin-1-yl)piperidine-4-carbonitrile]

IC50 [1, 9]: > 250 nM | IC50 [2, 10]: > 250 nM | IC50 [3, 11]: < 25 nM | IC50 [4, 12]: > 250 nM
SMILES: Cc1c(-c2nccc3cnc(Nc4ccc(NS(=O)(=O)c5cccc(N6CCN(C)CC6)c5)cc4)cc23)ccc2c1cnn2CC(C)(C)O [Ex 751, N-(4-((5-(1-(2-hydroxy-2-methylpropyl)-4-methyl-1H-indazol-5-yl)-2,6-naphthyridin-3-yl)amino)phenyl)-3-(4-methylpiperazin-1-yl)benzenesulfonamide]

IC50 [1, 5]: > 250 nM | IC50 [2, 14]: 25 to 250 nM | IC50 [3, 15]: < 25 nM | IC50 [4, 16]: 25 to 250 nM
SMILES: CS(=O)(=O)N1CCC(Nc2cc3c(N4CCC(O)C4)nccc3cn2)CC1 (racemic) [Ex 26, 1-(7-((1-(methylsulfonyl)piperidin-4-yl)amino)-2,6-naphthyridin-1-yl)pyrrolidin-3-ol]

IC50 [1, 9]: > 250 nM | IC50 [2, 10]: > 250 nM | IC50 [3, 11]: < 25 nM | IC50 [4, 12]: > 250 nM
SMILES: Cc1c(-c2nccc3cnc(Nc4ccc(S(=O)(=O)Nc5nccc(N6CCOCC6)n5)cc4)cc23)ccc2c1cnn2CC(O)(C(F)(F)F)C(F)(F)F [Ex 769, 4-((5-(4-methyl-1-(3,3,3-trifluoro-2-hydroxy-2-(trifluoromethyl)propyl)-1H-indazol-5-yl)-2,6-naphthyridin-3-yl)amino)-N-(4-morpholinopyrimidin-2-yl)benzenesulfonamide]

IC50 ([1]; x = IC50 25-250 nM, read-out: CDK1/CCNB IC50 (25-250 nM)): 25 to 250 nM | IC50 [2, 17]: 25 to 250 nM | IC50 [3, 18]: < 25 nM | IC50 [4, 19]: 25 to 250 nM
SMILES: CCS(=N)(=O)c1ccc(Nc2cc3c(C#Cc4ccc5oc(=O)[nH]c5c4)nccc3cn2)cc1 (racemic) [Ex 479, 5-((7-((4-(ethylsulfonimidoyl)phenyl)amino)-2,6-naphthyridin-1-yl)ethynyl)benzo[d]oxazol-2(3H)-one]

IC50 [1, 6]: > 250 nM | IC50 [2, 7]: > 250 nM | IC50 [3, 18]: < 25 nM | IC50 [4, 8]: > 250 nM
SMILES: COc1cc(S(C)(=O)=O)ccc1Nc1cc2c(C#Cc3ccc4c(c3)NC(=O)C43CC3)nccc2cn1 [Ex 375, 6'-((7-((2-methoxy-4-(methylsulfonyl)phenyl)amino)-2,6-naphthyridin-1-yl)ethynyl)spiro[cyclopropane-1,3'-indolin]-2'-one]

IC50 [1, 6]: > 250 nM | IC50 [2, 17]: 25 to 250 nM | IC50 [3, 18]: < 25 nM | IC50 [4, 19]: 25 to 250 nM
SMILES: Cc1c(-c2nccc3cnc(Nc4ccc(S(C)(=N)=O)cc4)cc23)ccc2c1cnn2CC(O)(C(F)(F)F)C(F)(F)F (centres unmarked) [Example 482, Imino(methyl)(4-((5-(4-methyl-1-(3,3,3-trifluoro-2-hydroxy-2-(trifluoromethyl)propyl)-1H-indazol-5-yl)-2,6-naphthyridin-3-yl)amino)phenyl)-λ^6-sulfanone]

IC50 [1, 9]: > 250 nM | IC50 [2, 10]: > 250 nM | IC50 [3, 11]: < 25 nM | IC50 [4, 12]: > 250 nM
SMILES: COc1cc(S(C)(=O)=O)ccc1Nc1cc2c(-c3ccc4c(cnn4CC(C)(C)O)c3C)nccc2cn1 [Ex 838, 1-(5-(7-((2-methoxy-4-(methylsulfonyl)phenyl)amino)-2,6-naphthyridin-1-yl)-4-methyl-1H-indazol-1-yl)-2-methylpropan-2-ol]

IC50 [1, 9]: > 250 nM | IC50 [2, 10]: > 250 nM | IC50 [3, 11]: < 25 nM | IC50 [4, 12]: > 250 nM
SMILES: Cc1c(-c2nccc3cnc(Nc4ccc(S(=O)(=O)Nc5ncc(F)cn5)cc4)cc23)ccc2c1cnn2CC(C)(C)O [Ex 880, N-(5-fluoropyrimidin-2-yl)-4-((5-(1-(2-hydroxy-2-methylpropyl)-4-methyl-1H-indazol-5-yl)-2,6-naphthyridin-3-yl)amino)benzenesulfonamide]

IC50 [1, 9]: > 250 nM | IC50 [2, 10]: > 250 nM | IC50 [3, 13]: 25 to 250 nM | IC50 [4, 12]: > 250 nM
SMILES: Cc1c(-c2nccc3cnc(Nc4ccc(S(=O)(=O)Nc5cccc(C(F)(F)F)c5)cc4)cc23)ccc2c1cnn2CC(C)(C)O [Ex 806, 4-((5-(1-(2-hydroxy-2-methylpropyl)-4-methyl-1H-indazol-5-yl)-2,6-naphthyridin-3-yl)amino)-N-(3-(trifluoromethyl)phenyl)benzenesulfonamide]

IC50 [1, 6]: > 250 nM | IC50 [2, 7]: > 250 nM | IC50 [3, 18]: < 25 nM | IC50 [4, 8]: > 250 nM
SMILES: CCC1(CC)C(=O)Nc2cc(C#Cc3nccc4cnc(Nc5ccc(S(=O)(=O)C(C)C)cc5)cc34)ccc21 [Ex 429, 3,3-diethyl-6-((7-((4-(isopropylsulfonyl)phenyl)amino)-2,6-naphthyridin-1-yl)ethynyl)indolin-2-one]

IC50 [1, 9]: > 250 nM | IC50 [2, 10]: > 250 nM | IC50 [3, 13]: 25 to 250 nM | IC50 [4, 12]: > 250 nM
SMILES: C[C@H]1CN(c2cc(Nc3cc4c(C#Cc5ccc(=O)[nH]n5)nccc4cn3)cnc2O)CCN1C [Ex 865, (S)-6-((7-((5-(3,4-dimethylpiperazin-1-yl)-6-hydroxypyridin-3-yl)amino)-2,6-naphthyridin-1-yl)ethynyl)pyridazin-3(2H)-one]
